Tested on: MCF7 complex spheroid growth, % test/control
Experiment: Anticancer human tumor MCF7 cell line growth inhibition [Asc];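 note: spheroids exposed to compounds for 7 days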;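 for viability, T/C: 100% = DMSO vehicle control wells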
Settings: for IC50: curve of first compound; for viability, T/C: stronger effect = lower value
In short: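 Spheroid model: tumor line + HUVEC + hMSC. Single agents and combinations; top conc. at/near clinical Cmax (10 microM if undetermined), half-log dilutions. DMSO stocks at 800-fold test concentration.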

[1] = second compound 0.00316 µM, first compound 0.00316 µM
[2] = second compound 0.00316 µM, first compound 0.01 µM
[3] = second compound 0.00316 µM, first compound 0.0316 µM
[4] = second compound 0.00316 µM, first compound 0.1 µM
[5] = second compound 0.01 µM, first compound 0.00316 µM
[6] = second compound 0.01 µM, first compound 0.01 µM
[7] = second compound 0.01 µM, first compound 0.0316 µM
[8] = second compound 0.01 µM, first compound 0.1 µM
[9] = second compound 0.0316 µM, first compound 0.00316 µM
[10] = second compound 0.0316 µM, first compound 0.01 µM
[11] = second compound 0.0316 µM, first compound 0.0316 µM
[12] = second compound 0.0316 µM, first compound 0.1 µM
[13] = second compound 0.1 µM, first compound 0.00316 µM
[14] = second compound 0.1 µM, first compound 0.01 µM
[15] = second compound 0.1 µM, first compound 0.0316 µM
[16] = second compound 0.1 µM, first compound 0.1 µM
[17] = second compound 0.316 µM, first compound 0.00316 µM
[18] = second compound 0.316 µM, first compound 0.01 µM
[19] = second compound 0.316 µM, first compound 0.0316 µM
[20] = second compound 0.316 µM, first compound 0.1 µM
[21] = second compound 1 µM, first compound 0.00316 µM
[22] = second compound 1 µM, first compound 0.01 µM
[23] = second compound 1 µM, first compound 0.0316 µM
[24] = second compound 1 µM, first compound 0.1 µM

With `COc1c(OCCCN2CCOCC2)ccc2c3n(c(=NC(=O)c4cnc(N)nc4)nc12)CCN3` + CNC(C)C(=O)NC1CN(S(=O)(=O)c2cccc(S(=O)(=O)N3CCC4CCC(C(=O)NC(c5ccccc5)c5ccccc5)N4C(=O)C(NC(=O)C(C)NC)C3)c2)CCC2CCC(C(=O)NC(c3ccccc3)c3ccccc3)N2C1=O the IC50 (second compound 0.00316 µM) was 3.2 nM, the IC50 (second compound 0.01 µM) was < 3.16 nM and the IC50 (second compound 0.0316 µM) was < 3.16 nM. The IC50 (second compound 0.1 µM) was < 3.16 nM, the IC50 (second compound 0.316 µM) was < 3.16 nM and the IC50 (second compound 1 µM) was < 3.16 nM. The viability, T/C [1] was 50.2%, the viability, T/C [2] was 35.3% and the viability, T/C [3] was 14.7%. For the same compound, the viability, T/C [4] was 8.43%, the viability, T/C (second compound 0.00316 µM, first compound 0.316 µM) was 8.17% and the viability, T/C (second compound 0.00316 µM, first compound 1 µM) was 8.35%. It also gave a viability, T/C [5] of 10.9%, a viability, T/C [6] of 9.75% and a viability, T/C [7] of 9.42%. It also gave a viability, T/C [8] of 8.15%, a viability, T/C (second compound 0.01 µM, first compound 0.316 µM) of 6.06% and a viability, T/C (second compound 0.01 µM, first compound 1 µM) of 8.55%. For the same compound, the viability, T/C [9] was 12.6%, the viability, T/C [10] was 10.9% and the viability, T/C [11] was 9.42%. For the same compound, the viability, T/C [12] was 9.87%, the viability, T/C (second compound 0.0316 µM, first compound 0.316 µM) was 7.86% and the viability, T/C (second compound 0.0316 µM, first compound 1 µM) was 8.09%. It also gave a viability, T/C [13] of 13.9%, a viability, T/C [14] of 11.1% and a viability, T/C [15] of 10.8%. The viability, T/C [16] was 12%, the viability, T/C (second compound 0.1 µM, first compound 0.316 µM) was 10.7% and the viability, T/C (second compound 0.1 µM, first compound 1 µM) was 8.86%. The viability, T/C [17] was 11.8%, the viability, T/C [18] was 9.96% and the viability, T/C [19] was 10.1%. The viability, T/C [20] was 10%, the viability, T/C (second compound 0.316 µM, first compound 0.316 µM) was 8.17% and the viability, T/C (second compound 0.316 µM, first compound 1 µM) was 8.52%. The viability, T/C [21] was 11.3%, the viability, T/C [22] was 9.91% and the viability, T/C [23] was 13%. For the same compound, the viability, T/C [24] was 10.5%, the viability, T/C (second compound 1 µM, first compound 0.316 µM) was 9.23% and the viability, T/C (second compound 1 µM, first compound 1 µM) was 9.11%.

For `NC1CCC(NC2CC2c2ccccc2)CC1` (centres undefined) + CNC(C)C(=O)NC1CN(S(=O)(=O)c2cccc(S(=O)(=O)N3CCC4CCC(C(=O)NC(c5ccccc5)c5ccccc5)N4C(=O)C(NC(=O)C(C)NC)C3)c2)CCC2CCC(C(=O)NC(c3ccccc3)c3ccccc3)N2C1=O, the IC50 (second compound 0.00316 µM) was < 0.316 nM, the IC50 (second compound 0.01 µM) was < 0.316 nM and the IC50 (second compound 0.0316 µM) was < 0.316 nM. The IC50 (second compound 0.1 µM) was < 0.316 nM, the IC50 (second compound 0.316 µM) was < 0.316 nM and the IC50 (second compound 1 µM) was < 0.316 nM. For the same compound, the viability, T/C (second compound 0.00316 µM, first compound 0.000316 µM) was 23.3%, the viability, T/C (second compound 0.00316 µM, first compound 0.001 µM) was 18.5% and the viability, T/C [1] was 16.4%. It also gave a viability, T/C [2] of 21.6%, a viability, T/C [3] of 18.2% and a viability, T/C [4] of 22.6%. For the same compound, the viability, T/C (second compound 0.01 µM, first compound 0.000316 µM) was 11.9%, the viability, T/C (second compound 0.01 µM, first compound 0.001 µM) was 12.3% and the viability, T/C [5] was 12.2%. For the same compound, the viability, T/C [6] was 10.7%, the viability, T/C [7] was 10.4% and the viability, T/C [8] was 10.8%. It also gave a viability, T/C (second compound 0.0316 µM, first compound 0.000316 µM) of 11.2%, a viability, T/C (second compound 0.0316 µM, first compound 0.001 µM) of 9.92% and a viability, T/C [9] of 10.8%. The viability, T/C [10] was 10.2%, the viability, T/C [11] was 10.9% and the viability, T/C [12] was 11.9%. For the same compound, the viability, T/C (second compound 0.1 µM, first compound 0.000316 µM) was 13.9%, the viability, T/C (second compound 0.1 µM, first compound 0.001 µM) was 12.6% and the viability, T/C [13] was 12.5%. It also gave a viability, T/C [14] of 10.5%, a viability, T/C [15] of 13.6% and a viability, T/C [16] of 13.8%. The viability, T/C (second compound 0.316 µM, first compound 0.000316 µM) was 11.4%, the viability, T/C (second compound 0.316 µM, first compound 0.001 µM) was 16.8% and the viability, T/C [17] was 16.9%. It also gave a viability, T/C [18] of 15.8%, a viability, T/C [19] of 12% and a viability, T/C [20] of 14.2%. The viability, T/C (second compound 1 µM, first compound 0.000316 µM) was 13.1%, the viability, T/C (second compound 1 µM, first compound 0.001 µM) was 12.3% and the viability, T/C [21] was 13.9%. The viability, T/C [22] was 15.8%, the viability, T/C [23] was 15% and the viability, T/C [24] was 10.2%.

— PubChem BioAssay AID1963445 (Molecular Pharmacology Branch, DTP, NCI, 2024)
